Results as given in patent KR20130112248A, “피라졸로피리미딘 유도체 화합물, 이를 포함하는 산화질소 생성 억제용 조성물 및 뇌신경 질환 예방 및 치료용 약학적 조성물” (한국과학기술연구원, priority 2012, dated 2013).

Test system: NO production in BV-2 cells [NO 생성; BV-2 세포]
Test: Nitric oxide (NO) quantification (nitrite, Griess reaction) in LPS-activated BV-2 cells
Format: cell-based
Conditions: 20 μM, LPS 0.2 ㎍/mL, 24 h co-treatment, nitrite by Griess at 540 nm, 1440 min

SMILES | NO (% of LPS)
CCCCNc1nc(NC(C)c2ccccc2)c2cnn(Cc3ccccc3)c2n1 (stereo not shown) [화합물 24f, 1-벤질-N6-뷰틸-N4-(1-페닐에틸)-1H-피라졸로[3,4-d]피리미딘-4,6-디아민] | 9±1 % of LPS

Same assay, conditions: Mus musculus, BV-2, 24 h, 20 μM, LPS 0.2 ㎍/mL, 24 h co-treatment, nitrite by Griess at 540 nm

SMILES | activity at 20 µM [%]
CC(Nc1nc(NCCO)nc2c1cnn2Cc1ccccc1)c1ccccc1 (stereo not shown) [화합물 24a, 2-(4-(1-페닐에틸아미노)-1-벤질-1H-피라졸로[3,4-d]피리미딘-6-일아미노)에탄올] | 78 ± 1.4
COCCNc1nc(NC(C)c2ccccc2)c2cnn(Cc3ccccc3)c2n1 (stereo not shown) [화합물 24h, 1-벤질-N6-(2-메톡시에틸)-N4-(1-페닐에틸)-1H-피라졸로[3,4-d]피리미딘-4,6-디아민] | 44 ± 4.2
COc1cccc(CCn2ncc3c(NCc4ccc(C)cc4)nc(SC)nc32)c1 [화합물 18f, 1-(3-메톡시펜에틸)-N-(4-메틸벤질)-6-(메틸티오)-1H-피라졸로[3,4-d]피리미딘-4-아민] | 56 ± 3.1
CC(Nc1nc(S(C)(=O)=O)nc2c1cnn2-c1ccccc1)C1CCCCC1 (stereo not shown) [화합물 23f, N-(1-사이클로헥실에틸)-6-(메틸설포닐)-1-페닐-1H-피라졸로[3,4-d]피리미딘-4-아민] | 23 ± 0.6
COc1ccccc1CNc1nc(SC)nc2c1cnn2-c1ccccc1 [화합물 15v, 1-페닐-4-(2-메톡시벤질)아미노-6-(메틸티오)피라졸로[3,4-d]피리미딘] | 41 ± 2
CSc1nc(NC(C)c2ccccc2)c2cnn(C)c2n1 (stereo not shown) [화합물 12o, 1-메틸-6-(메틸티오)-N-(1-페닐에틸)-1H-피라졸로[3,4-d]피리미딘-4-아민] | 70 ± 5
